Measurements as given in PubChem BioAssay (NCI).
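Briefly, cells in 96-well plates were exposed to five compound concentrations for 48 h, and endpoints were estimated by linear interpolation. The concentration for 50% growth inhibition is given as GI50. TGI denotes the concentration required for complete inhibition of growth.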

Columns and labels:
Assay in all cases: NCI tumour cell line growth inhibition, 48 h
UACC-62 melanoma = test system: UACC-62 melanoma
NCI-H460 lung = test system: NCI-H460 lung
COLO 205 colon = test system: COLO 205 colon
SNB-19 CNS = test system: SNB-19 CNS
SK-OV-3 ovarian = test system: SK-OV-3 ovarian
OVCAR-8 ovarian = test system: OVCAR-8 ovarian
SF-268 CNS = test system: SF-268 CNS
PC-3 prostate = test system: PC-3 prostate
HS 578T breast = test system: HS 578T breast
SN12C renal = test system: SN12C renal
MCF7 breast = test system: MCF7 breast
SNB-75 CNS = test system: SNB-75 CNS
CCRF-CEM leukemia = test system: CCRF-CEM leukemia
A549 NSCLC = test system: A549 NSCLC
EKVX NSCLC = test system: EKVX NSCLC
RPMI-8226 leukemia = test system: RPMI-8226 leukemia
SK-MEL-28 melanoma = test system: SK-MEL-28 melanoma
BT-549 breast = test system: BT-549 breast
HCT-15 colon = test system: HCT-15 colon
DU-145 prostate = test system: DU-145 prostate
SK-MEL-5 melanoma = test system: SK-MEL-5 melanoma
SF-295 CNS = test system: SF-295 CNS
OVCAR-3 ovarian = test system: OVCAR-3 ovarian
786-0 renal = test system: 786-0 renal
K-562 leukemia = test system: K-562 leukemia
NCI-H23 lung = test system: NCI-H23 lung
SR leukemia = test system: SR leukemia
UO-31 renal = test system: UO-31 renal
M14 melanoma = test system: M14 melanoma

**Q.** With `C#CCN(C)CCCOc1ccc(NCc2ccc(/C=C/C(=O)NO)cc2)cc1Cl` as the compound, how does the GI50 (UACC-62 melanoma) read?
**A.** 367 nM

**Q.** And the TGI (UACC-62 melanoma)?
**A.** 1900 nM

**Q.** And the GI50 (NCI-H460 lung)?
**A.** 430 nM

**Q.** And the TGI (NCI-H460 lung)?
**A.** 3210 nM

**Q.** What about the GI50 (COLO 205 colon) of the same compound?
**A.** 374 nM

**Q.** What about the TGI (COLO 205 colon) of the same compound?
**A.** 1920 nM

**Q.** And the GI50 (SNB-19 CNS)?
**A.** 1030 nM

**Q.** And the TGI (SNB-19 CNS)?
**A.** 4060 nM

**Q.** And the GI50 (SK-OV-3 ovarian)?
**A.** 645 nM

**Q.** And the TGI (SK-OV-3 ovarian)?
**A.** 2990 nM

**Q.** What about the GI50 (OVCAR-8 ovarian) of the same compound?
**A.** 369 nM

**Q.** What about the TGI (OVCAR-8 ovarian) of the same compound?
**A.** > 48300 nM

**Q.** What about the GI50 (SF-268 CNS) of the same compound?
**A.** 1360 nM

**Q.** What about the TGI (SF-268 CNS) of the same compound?
**A.** 4650 nM

**Q.** And the GI50 (PC-3 prostate)?
**A.** 509 nM

**Q.** And the TGI (PC-3 prostate)?
**A.** 6850 nM

**Q.** And the GI50 (HS 578T breast)?
**A.** 582 nM

**Q.** What about the TGI (HS 578T breast) of the same compound?
**A.** 6220 nM

**Q.** What about the GI50 (SN12C renal) of the same compound?
**A.** 1050 nM

**Q.** What about the TGI (SN12C renal) of the same compound?
**A.** 7340 nM

**Q.** And the GI50 (MCF7 breast)?
**A.** 421 nM

**Q.** What about the TGI (MCF7 breast) of the same compound?
**A.** 11800 nM

**Q.** What about the GI50 (SNB-75 CNS) of the same compound?
**A.** 474 nM

**Q.** What about the TGI (SNB-75 CNS) of the same compound?
**A.** 2920 nM

**Q.** And the GI50 (CCRF-CEM leukemia)?
**A.** 264 nM

**Q.** What about the TGI (CCRF-CEM leukemia) of the same compound?
**A.** > 100000 nM

**Q.** What about the GI50 (A549 NSCLC) of the same compound?
**A.** 528 nM

**Q.** What about the TGI (A549 NSCLC) of the same compound?
**A.** 2540 nM

**Q.** What about the GI50 (EKVX NSCLC) of the same compound?
**A.** 954 nM

**Q.** What about the TGI (EKVX NSCLC) of the same compound?
**A.** 6800 nM

**Q.** And the GI50 (RPMI-8226 leukemia)?
**A.** 316 nM

**Q.** What about the TGI (RPMI-8226 leukemia) of the same compound?
**A.** 2820 nM

**Q.** What about the GI50 (SK-MEL-28 melanoma) of the same compound?
**A.** 485 nM

**Q.** And the TGI (SK-MEL-28 melanoma)?
**A.** 1920 nM

**Q.** And the GI50 (BT-549 breast)?
**A.** 1370 nM

**Q.** And the TGI (BT-549 breast)?
**A.** 6090 nM

**Q.** What about the GI50 (HCT-15 colon) of the same compound?
**A.** 512 nM

**Q.** And the TGI (HCT-15 colon)?
**A.** 4600 nM

**Q.** And the GI50 (DU-145 prostate)?
**A.** 412 nM

**Q.** What about the TGI (DU-145 prostate) of the same compound?
**A.** 5280 nM

**Q.** What about the GI50 (SK-MEL-5 melanoma) of the same compound?
**A.** 373 nM

**Q.** And the TGI (SK-MEL-5 melanoma)?
**A.** 1340 nM

**Q.** And the GI50 (SF-295 CNS)?
**A.** 634 nM

**Q.** And the TGI (SF-295 CNS)?
**A.** 2030 nM

**Q.** And the GI50 (OVCAR-3 ovarian)?
**A.** 478 nM

**Q.** What about the TGI (OVCAR-3 ovarian) of the same compound?
**A.** 2490 nM

**Q.** And the GI50 (786-0 renal)?
**A.** 1130 nM

**Q.** What about the TGI (786-0 renal) of the same compound?
**A.** 2750 nM

**Q.** And the GI50 (K-562 leukemia)?
**A.** 297 nM

**Q.** What about the TGI (K-562 leukemia) of the same compound?
**A.** > 100000 nM

**Q.** And the GI50 (NCI-H23 lung)?
**A.** 814 nM

**Q.** What about the TGI (NCI-H23 lung) of the same compound?
**A.** 2660 nM

**Q.** And the GI50 (SR leukemia)?
**A.** 360 nM

**Q.** What about the TGI (SR leukemia) of the same compound?
**A.** > 100000 nM

**Q.** And the GI50 (UO-31 renal)?
**A.** 299 nM

**Q.** What about the TGI (UO-31 renal) of the same compound?
**A.** 1550 nM

**Q.** What about the GI50 (M14 melanoma) of the same compound?
**A.** 465 nM

**Q.** What about the TGI (M14 melanoma) of the same compound?
**A.** 2100 nM
